Source: patent US20190112316A1, “THIAZOLO[3,2-A] PYRIMIDINONE AND OTHER HETEROBICYCLIC PYRIMIDINONE COMPOUNDS FOR USE IN MEDICAL THERAPY” (priority 2015, published 2019)
In brackets after ≈: the same amount, converted by molar mass.

Legend:
[1] = target: T1, glucocerebrosidase (Gcase) (Homo sapiens, UniProt P04062); test: Glucocerebrosidase (Gcase) activation assay, 4-methylumbelliferyl-beta-D-glucopyranoside substrate, with saposin C; assay type: biochemical; conditions: for activation at 0.1 µM: read-out: Percent Gcase Activation 0.1 μM Test Compound; for activation at 1 µM: read-out: Percent Gcase Activation 1 μM Test Compound
T1 construct: micellar solution containing 10 nM GCase and 100 nM saposin C (Enzo ALX-201-262-C050)
T1 sequence (P04062 40-536): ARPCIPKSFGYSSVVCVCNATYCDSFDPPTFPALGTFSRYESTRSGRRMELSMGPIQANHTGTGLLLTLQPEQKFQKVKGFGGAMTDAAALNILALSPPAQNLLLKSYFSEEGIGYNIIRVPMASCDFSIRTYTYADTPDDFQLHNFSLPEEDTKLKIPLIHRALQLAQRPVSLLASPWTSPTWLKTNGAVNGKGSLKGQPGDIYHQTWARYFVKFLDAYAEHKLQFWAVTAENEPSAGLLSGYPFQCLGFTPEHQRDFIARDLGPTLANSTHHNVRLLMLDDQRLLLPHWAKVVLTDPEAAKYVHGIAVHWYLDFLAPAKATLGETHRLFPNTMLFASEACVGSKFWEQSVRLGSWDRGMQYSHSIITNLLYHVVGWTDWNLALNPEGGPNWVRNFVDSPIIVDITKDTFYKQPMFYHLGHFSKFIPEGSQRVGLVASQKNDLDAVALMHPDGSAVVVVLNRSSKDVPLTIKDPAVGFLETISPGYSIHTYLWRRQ
Protocol: A 484 μL aliquot of a 1.0 mg/mL solution of phosphatidylserine (PS) (Sigma P7769) in chloroform was evaporated under a stream of nitrogen for 1 hour. The lipid film was dissolved over 4 minutes of vigorous vortexing in 40 mL of 176 mM K2HPO4/50 mM citric acid (pH 4.7) containing 7.5 μL of triton X-100, resulting in a mixed micellar preparation with a composition of 0.32 mM triton and 0.37 mol % PS. 4-Methylumbelliferyl-beta-D-glucopyranoside (ACROS-337025000) was dissolved in the micellar solution to a final concentration of 2 mM for use as the reaction substrate.
Test compounds were diluted to the desired concentrations with dimethylsulfoxide (DMSO) from 10 mM stocks, and 0.41 μL of the DMSO compound mixture was added to 100 μL of micellar solution containing 10 nM GCase and 100 nM saposin C (Enzo ALX-201-262-C050). Pre-incubation was allowed to occur for 30 minutes at room temperature, after which the reaction was initiated by combining 25 μL of substrate solution with 25 μL of compound/GCase/saposin mixture. The reaction proceeded for 15 minutes at room temperature and was stopped by adding 150 μL of 1M glycine, pH 12.5. The endpoint of the reaction was monitored by measuring fluorescence intensity (excitation: 365 nm; emission: 440 nm) on a SpectraMax i3 instrument (Molecular Devices). Test compounds were screened at 1.0 and 0.1 μM final concentration, and subsequent 8-point dose response curves were obtained using 3-fold dilutions from a maximum final concentration of 5 μM.

[2] = Compound solubility in water; assay type: physicochemical

Structure (SMILES) | activation at 0.1 µM [1] | activation at 1 µM [1] | solubility [2]
O=C(Nc1ccc2c(c1)CCC2)c1cnc2n(c1=O)CCS2 | < 5% | 5 to 20% | 0.3 µg/mL (≈ 0.957 µM)
O=C(Nc1ccc(-c2cocn2)cc1)c1cnc2n(c1=O)CCS2 | < 5% | < 5% | –
O=C(Nc1ccc(-c2ccco2)cc1)c1cnc2n(c1=O)CCS2 | 5 to 20% | 5 to 20% | –
O=C(Nc1ccc(-c2cccs2)cc1)c1cnc2n(c1=O)CCS2 | 5 to 20% | 5 to 20% | –
COCC#Cc1ccc(NC(=O)c2cnc3n(c2=O)CCS3)cc1 | 5 to 20% | 5 to 20% | –
Cc1ccc(NC(=O)c2cnc3n(c2=O)CCS3)cc1-c1ncco1 | < 5% | 5 to 20% | –
CC1CCC(NC(=O)c2cnc3n(c2=O)CCS3)CC1 (stereo not shown) | < 5% | 5 to 20% | 21.4 µg/mL (≈ 72.9 µM)
O=C(NC1CCCCCC1)c1cnc2n(c1=O)CCS2 | < 5% | 5 to 20% | 20.8 µg/mL (≈ 70.9 µM)
O=C(NC1CCCc2ccccc21)c1cnc2n(c1=O)CCS2 (stereo not shown) | < 5% | > 20% | 7.1 µg/mL (≈ 21.7 µM)
O=C(NC1CC2CCC1C2)c1cnc2n(c1=O)CCS2 (stereo not shown) | < 5% | < 5% | –
O=C(NC1CCc2ccccc21)c1cnc2n(c1=O)CCS2 (stereo not shown) | < 5% | 5 to 20% | 17.6 µg/mL (≈ 56.2 µM)
O=C(NC1CCOCC1)c1cnc2n(c1=O)CCS2 | < 5% | 5 to 20% | 26.3 µg/mL (≈ 93.5 µM)
CCN1CCN(c2ccc(NC(=O)c3cnc4n(c3=O)CCS4)cc2)CC1 | < 5% | 5 to 20% | 34.8 µg/mL (≈ 90.3 µM)
C[C@@H](NC(=O)c1cnc2n(c1=O)CCS2)c1ccccc1 | < 5% | < 5% | 36.8 µg/mL (≈ 122 µM)
C[C@H](NC(=O)c1cnc2n(c1=O)CCS2)c1ccccc1 | 5 to 20% | 5 to 20% | 37.2 µg/mL (≈ 123 µM)
CC(Cc1ccc(Cl)cc1)NC(=O)c1cnc2n(c1=O)CCS2 (stereo not shown) | < 5% | 5 to 20% | 16.7 µg/mL (≈ 47.7 µM)
O=C(NC1CCC(c2ccccc2)CC1)c1cnc2n(c1=O)CCS2 (stereo not shown) | 5 to 20% | > 20% | 10.6 µg/mL (≈ 29.8 µM)
O=C(NC1CCc2ccccc2C1)c1cnc2n(c1=O)CCS2 (stereo not shown) | < 5% | 5 to 20% | 30.7 µg/mL (≈ 93.8 µM)
CCCCc1ccc(NC(=O)c2cnc3n(c2=O)CCS3)cc1 | 5 to 20% | > 20% | 0.2 µg/mL (≈ 0.607 µM)

Structure (SMILES) | activation at 0.1 µM [1] | activation at 1 µM [1] | solubility [2]
O=C(NC1CCCC2(CCCCO2)C1)c1cnc2n(c1=O)CCS2 (stereo not shown) | < 5% | < 5% | 36 µg/mL (≈ 103 µM)
O=C(NC1CCCCC12CCCCO2)c1cnc2n(c1=O)CCS2 (stereo not shown) | < 5% | < 5% | 37.2 µg/mL (≈ 106 µM)
Cc1ccc(NC(=O)c2cnc3scc(C)n3c2=O)cc1C | – | 5 to 20% | –
Cc1sc2ncc(C(=O)Nc3ccc(C(C)C)cc3)c(=O)n2c1C | – | < 5% | –
CCCCc1ccc(NC(=O)c2cnc3scc(-c4ccccc4)n3c2=O)cc1 | – | > 20% | –
CCc1ccc(NC(=O)c2cnc3sccn3c2=O)cc1 | 5 to 20% | > 20% | –
Cc1ccc(CNC(=O)c2cnc3scc(C)n3c2=O)cc1 | – | 5 to 20% | –
CCOc1ccc(NC(=O)c2cnc3scc(C)n3c2=O)cc1 | – | 5 to 20% | –
Cc1csc2ncc(C(=O)Nc3ccc(Oc4ccccc4)cc3)c(=O)n12 | 5 to 20% | > 20% | –
CCCCc1ccc(NC(=O)c2cnc3scc(C)n3c2=O)cc1 | 5 to 20% | > 20% | –
Cc1ccc(NC(=O)c2cnc3sc(C)cn3c2=O)cc1 | – | 5 to 20% | –
Cc1cc(C)cc(NC(=O)c2cnc3sccn3c2=O)c1 | – | 5 to 20% | –
Cc1ccccc1NC(=O)c1cnc2scc(C)n2c1=O | – | 5 to 20% | –
Cc1ccc(NC(=O)c2cnc3scc(C)n3c2=O)c(C)c1 | – | > 20% | –
CCCCc1ccc(NC(=O)c2cnc3sc4c(n3c2=O)CCCC4)cc1 | – | 5 to 20% | –
Cc1csc2ncc(C(=O)Nc3ccc(-c4cocn4)cc3)c(=O)n12 | < 5% | 5 to 20% | –
Cc1cccc2ncc(C(=O)NC3CC4CCC3C4)c(=O)n12 (stereo not shown) | < 5% | 5 to 20% | –
Cc1ccn2c(=O)c(C(=O)NC3CCc4ccccc4C3)cnc2c1 (stereo not shown) | < 5% | 5 to 20% | –

Next, values leading:

activation at 0.1 µM [1] | activation at 1 µM [1] | solubility [2] | Structure (SMILES)
< 5% | > 20% | 5.1 µg/mL (≈ 16.9 µM) | CCc1ccc(NC(=O)c2cnc3n(c2=O)CCS3)cc1
5 to 20% | > 20% | 0.3 µg/mL (≈ 0.911 µM) | CCC(C)c1ccc(NC(=O)c2cnc3n(c2=O)CCS3)cc1 (stereo not shown)
5 to 20% | > 20% | 1.3 µg/mL (≈ 3.72 µM) | CCCCC1CCC(NC(=O)c2cnc3n(c2=O)C(C)CS3)CC1 (stereo not shown)
< 5% | > 20% | 1.2 µg/mL (≈ 3.43 µM) | CCCCC1CCC(NC(=O)c2cnc3n(c2=O)CC(C)S3)CC1 (stereo not shown)
< 5% | < 5% | 0.8 µg/mL (≈ 2.36 µM) | O=C(Nc1ccc(-n2ccnc2)cc1)c1cnc2n(c1=O)CCS2
< 5% | < 5% | 9.5 µg/mL (≈ 28.7 µM) | O=C(Nc1ccc2c(c1)OCCO2)c1cnc2n(c1=O)CCS2
< 5% | < 5% | 4 µg/mL (≈ 11.2 µM) | O=C(Nc1ccc(N2CCCCC2)cc1)c1cnc2n(c1=O)CCS2
< 5% | 5 to 20% | 32.4 µg/mL (≈ 98.7 µM) | CN1Cc2ccc(NC(=O)c3cnc4n(c3=O)CCS4)cc2C1
< 5% | 5 to 20% | 1.5 µg/mL (≈ 5.04 µM) | C#Cc1ccc(NC(=O)c2cnc3n(c2=O)CCS3)cc1
5 to 20% | > 20% | – | O=C(Nc1ccc(C2CCCCC2)cc1)c1cnc2n(c1=O)CCS2
5 to 20% | > 20% | – | CCCCC1CCC(NC(=O)c2cnc3n(c2=O)CCS3)CC1 (stereo not shown)
< 5% | 5 to 20% | – | O=C(NC1CCOc2ccccc21)c1cnc2n(c1=O)CCS2 (stereo not shown)
< 5% | 5 to 20% | – | O=C(NCCOc1ccccc1)c1cnc2n(c1=O)CCS2
< 5% | < 5% | 29.5 µg/mL (≈ 84.4 µM) | O=C(NC1CCC2(CCCCO2)CC1)c1cnc2n(c1=O)CCS2 (stereo not shown)
– | < 5% | – | Cc1csc2ncc(C(=O)Nc3ccc(F)cc3)c(=O)n12
– | > 20% | – | Cc1csc2ncc(C(=O)Nc3ccc(Cl)cc3)c(=O)n12

activation at 0.1 µM [1] | activation at 1 µM [1] | solubility [2] | Structure (SMILES)
– | 5 to 20% | – | Cc1ccc(NC(=O)c2cnc3scc(C)n3c2=O)cc1F
– | > 20% | – | CCc1ccc(NC(=O)c2cnc3scc(-c4ccccc4)n3c2=O)cc1
– | 5 to 20% | – | COc1cccc(NC(=O)c2cnc3scc(C)n3c2=O)c1
– | > 20% | – | COc1ccc(NC(=O)c2cnc3scc(C)n3c2=O)cc1
– | 5 to 20% | – | CCOc1ccccc1NC(=O)c1cnc2scc(C)n2c1=O
– | 5 to 20% | – | COc1ccc(NC(=O)c2cnc3scc(C)n3c2=O)c(OC)c1
– | > 20% | – | CCc1cccc(NC(=O)c2cnc3scc(C)n3c2=O)c1
– | 5 to 20% | – | Cc1csc2ncc(C(=O)Nc3ccc(N(C)C)cc3)c(=O)n12
< 5% | > 20% | – | CCC(C)c1ccc(NC(=O)c2cnc3sccn3c2=O)cc1 (stereo not shown)
– | 5 to 20% | – | Cc1ccc(NC(=O)c2cnc3sccn3c2=O)cc1C
– | 5 to 20% | – | COC(=O)c1ccc(NC(=O)c2cnc3scc(C)n3c2=O)cc1
– | 5 to 20% | – | Cc1ccc(NC(=O)c2cnc3scc(C)n3c2=O)cc1Cl
– | > 20% | – | CCCCOC(=O)c1ccc(NC(=O)c2cnc3scc(C)n3c2=O)cc1
< 5% | 5 to 20% | – | Cc1csc2ncc(C(=O)Nc3ccc4c(c3)OCO4)c(=O)n12
< 5% | 5 to 20% | – | Cc1cccc2ncc(C(=O)NC3CCOc4ccccc43)c(=O)n12 (stereo not shown)
< 5% | 5 to 20% | – | Cc1cccc2ncc(C(=O)NCCOc3ccccc3)c(=O)n12
